Data on 29 molecules can be found in patent US4056631A, “Method of combatting ticks” (Showa Denko K.K., priority 1973, dated 1977).

For orientation: mortality means the percentage killed. In general, LD50 refers to the dose at which mortality reaches 50%.

In data set [1] the test system is Haemaphysalis longicornis. Description: Test 2: killing of tick larvae of Haemaphysalis longicornis (immersion in emulsified aqueous solution). As to conditions: immersed 2 to 5 minutes, 25° C. for 24 hours, read-out: Combatting Effect of Larvae of Haemaphysalis longicornis (mortality of unfed larvae). The format is in vivo. Here is the method:
(§1) Groups of 50 to 100 larvae of Boophilus microplus and Haemaphysalis longicornis of about two weeks old placed in paper packets were immeresed for 2 to 5 minutes in an emulsified aqueous solution of the test compounds of a concentration of 100 ppm, and the larvae were incubated at 25° C. for 24 hours according to the procedure described by Stone and Haydock (1962), and the rate of the larvae killed were determined. Each figure indicates mortality of unfed larvae after treatment with the test compounds.

The test system of data set [2] is Boophilus microplus. Description: Test 1: inhibition of oviposition by Boophilus microplus (acetone solution dropped on back of blood-fed females). The conditions noted are these: Rhipicephalus microplus, topical, 336 h, read-out: Inhibition Ratio of Oviposition by Boophilus microplus.
Excerpt: (§3) One each of the adults of female Boophilus microplus or Haemaphysalis longicornis which had been allowed to suck blood fully was placed in a flat bottom test tube having a diameter of 10 millimeters and a depth of 35 millimeters. After rendering the chemicals to be tested into acetone solutions, the solutions were dropped to the back of the ticks in an amount corresponding to 110 gamma per one gram of body weight, using a micro syringe after which the acetone was evaporated. The test tube was then transferred to a desiccator containing a small portion of water where it was left standing at a constant temperature of 30° C., and the ticks were allowed to oviposit. Two weeks later, the amount of eggs laid per 1 gram of body weight was counted. Using this value and the amount of eggs laid in the case of the control group not treated with the chemicals, the rate of inhibition of oviposition was obtained as follows: [formula] where A is the number of eggs laid per gram of body weight of ticks of the group not treated with chemicals,
(§4) B is the number of eggs laid per gram of body weight of ticks of the group treated with chemicals.
(§5) The foregoing ratio was used to indicate the effectiveness of the chemicals tested.
Data set [3] deals with Boophilus microplus. Put plainly: Test 2: killing of tick larvae of Boophilus microplus (immersion in emulsified aqueous solution). The conditions noted are these: Rhipicephalus microplus, immersed 2 to 5 minutes, 25° C. for 24 hours, read-out: Combatting Effect of Larvae of Boophilus microplus (mortality of unfed larvae). The format is in vivo. As to the method:
as §1

The test system of data set [4] is Haemaphysalis longicornis. Description: Test 1: inhibition of oviposition by Haemaphysalis longicornis (acetone solution dropped on back of blood-fed females). The conditions noted are these: topical, 336 h, read-out: Inhibition Ratio of Oviposition by Haemaphysalis longicornis.
Excerpt: as §3, §4, §5
Data set [5] is described as follows: Test 4: acute oral toxicity in mice. The arrangement: species or system mice (male albino, strain ddY). The conditions noted are these: mouse, in vivo, single dose, observed for a week. As to the method: Acute oral toxicity was determined by using male albino mice strain ddY, 5 weeks old. The test compounds were administered orally once and the LD50 values were calculated after observing for a week.

Data set [6] deals with Boophilus microplus. Description: Test 3: killing adults of Boophilus microplus (spray of diluted Recipe 1 emulsion). The format is in vivo. As to conditions: female adults. The arrangement: key: (+): presence of deaths was observed; (-): there were no deaths. As to the method:
(§2) An emulsion was prepared in accordance with the foregoing Recipe 1, using as its active ingredient the compound No. 12. Several classes of spraying liquids having the concentrations indicated in Table 3 were prepared by diluting this emulsion with water. Ten female Boophilus microplus which had sucked blood fully were placed on a filter paper, and the liquid described above was sprayed onto the ticks with a glass sprayer in an amount such that the liquid would flow down the backs of the ticks. The ticks were then immediately transferred to a wet filter paper disposed in a Petri dish, and when the liquid on the backs of the ticks became somewhat dried, the dish was covered. The Petri dish was then held at a constant temperature of 30° C. for two weeks, after which the total amount of eggs laid was counted. During the time the Petri dish was held at a constant temperature, the inside of the Petri dish was maintained in a state of high humidity by dropping a small amount of water onto the filter paper daily. The effectiveness was judged by the rate of eggs laid by the several treated groups relative to the total eggs laid in the case of the ticks of the control group, which had been sprayed with only water. On the other hand, the effectiveness in killing the female adults was judged by observation of the presence or absence of deaths. The case where the presence of deaths was observed is indicated with the symbol (+), and the case where there were no deaths is indicated with the symbol (-).

Data set [7] deals with Boophilus microplus. Description: Test 3: inhibiting oviposition by Boophilus microplus (spray of diluted Recipe 1 emulsion). The format is in vivo. The conditions noted are these: relative to water-sprayed control, two weeks, 30° C. As to the method: as §2
Where [8] appears, read: concentration of compound 0.003%.
Setting [9] is: concentration of compound 0.01%.
Where [10] appears, read: concentration of compound 0.03%.

Structures are written as SMILES.

In the case of `CCN=C=NC(C)(C)c1ccccc1` [Compound 1, N-ethyl-N'-(2-phenyl-2-propyl)carbodiimide], the mortality at 100 ppm in data set [1] was found to be 98%.
Take `CCCN=C=NC(C)(C)c1ccccc1` [Compound 2, N-n-propyl-N'-(2-phenyl-2-propyl)carbodiimide]: the pest or weed control at 110 µg/g with Boophilus microplus [2] turned out to be 100%.
Consider `CC(C)N=C=NC(C)(C)c1ccccc1` [Compound 3, N-iso-propyl-N'-(2-phenyl-2-propyl) carbodiimide], for which the mortality at 100 ppm in the data set on Boophilus microplus [3] came to 96.4%.
`CC(C)(C)N=C=NC(C)(C)c1ccccc1` [Compound 4, N-tert-butyl-N'-(2-phenyl-2-propyl)carbodiimide]: in data set [1], the mortality at 100 ppm was 80.3%.
On to `CCCCCN=C=NC(C)(C)c1ccccc1` [Compound 5, N-n-pentyl-N'-(2-phenyl-2-propyl)carbodiimide], for which the pest or weed control at 110 µg/g in data set [4] turned out to be 100%. Also, the mortality at 100 ppm in data set [1] came to 100%.
Turning to `CCCCCCN=C=NC(C)(C)c1ccccc1` [Compound 6, N-n-hexyl-N'-(2-phenyl-2-propyl)carbodiimide], the pest or weed control at 110 µg/g in the data set with Boophilus microplus [2] stood at 96.3%; in data set [4], 100%. The LD50 at 168 h in data set [5] came to 2000 mg/kg. Besides, in the data set with Boophilus microplus [3], the mortality at 100 ppm turned out to be 74.6%.
With `CCCCCCCN=C=NC(C)(C)c1ccccc1` [Compound 7, N-n-heptyl-N'-(2-phenyl-2-propyl)carbodiimide], the pest or weed control at 110 µg/g (in the data set with Boophilus microplus [2]; in data set [4]) was 100% in each case.
Consider `CCCCCCCCN=C=NC(C)(C)c1ccccc1` [Compound 8, N-n-octyl-N'-(2-phenyl-2-propyl)carbodiimide], for which the pest or weed control at 110 µg/g (in the data set with Boophilus microplus [2]; in data set [4]) was 100% throughout. Further, in data set [5], the LD50 at 168 h is 6000 mg/kg. Besides, in the data set on Boophilus microplus [3], the mortality at 100 ppm worked out at 68.5%.
As to `CCCCC(CC)CN=C=NC(C)(C)c1ccccc1` (stereo not drawn) [Compound 9, N-(2-ethyl-n-hexyl)-N'-(2-phenyl-2-propyl)carbodiimide], the LD50 at 168 h in data set [5] was 7000 mg/kg. Further, in data set [4], the pest or weed control at 110 µg/g came out at 100%. The mortality at 100 ppm in data set [1] worked out at 100%.
For `CCCCCCCCCN=C=NC(C)(C)c1ccccc1` [Compound 10, N-n-nonyl-N'-(2-phenyl-2-propyl)carbodiimide], the pest or weed control at 110 µg/g (in the data set on Boophilus microplus [2]; in data set [4]) was 100% throughout.
On to `CCCCCCCCCCN=C=NC(C)(C)c1ccccc1` [Compound 11, N-n-decyl-N'-(2-phenyl-2-propyl)carbodiimide], for which the pest or weed control at 110 µg/g in the data set on Boophilus microplus [2] is 93.1%; in data set [4], 100%.
For `CCCCCCCCCCCCN=C=NC(C)(C)c1ccccc1` [Compound 12, N-n-dodecyl-N'-(2-phenyl-2-propyl)carbodiimide], the pest or weed control at 110 µg/g (in the data set with Boophilus microplus [2]; in data set [4]) was 100% throughout. For the same molecule, the LD50 at 168 h in data set [5] was greater than 16000 mg/kg. Further, the “Effectiveness in Killing Adults” value in the data set on Boophilus microplus [6] (setting [8]) was “(-)”; in the data set with Boophilus microplus [6] (setting [9]), “(-)”; with Boophilus microplus [6] (setting [10]), “(-)”; in the data set with Boophilus microplus [6] (concentration of compound 0.1%) it was “(+)”; in the data set with Boophilus microplus [6] (concentration of compound 0.3%), “(+)”; with Boophilus microplus [6] (concentration of compound 1%), “(+)”. The mortality at 100 ppm turned out to be 86.5% in the data set with Boophilus microplus [3] and 82.2% in data set [1]. The “Rate of Eggs Laid” value in the data set on Boophilus microplus [7] (setting [8]) is listed as 94.8%; in the data set on Boophilus microplus [7] (setting [9]), 85.5%; in the data set with Boophilus microplus [7] (setting [10]) it was 62.6%; with Boophilus microplus [7] (concentration of compound 0.1%) it was 0%; in the data set with Boophilus microplus [7] (concentration of compound 0.3%), 0%; in the data set with Boophilus microplus [7] (concentration of compound 1%), 0%.
For `CCCCCCCCCCCCCCN=C=NC(C)(C)c1ccccc1` [Compound 13, N-n-myristyl-N'-(2-phenyl-2-propyl)carbodiimide], the figures for the pest or weed control at 110 µg/g (in the data set with Boophilus microplus [2]; in data set [4]) were 85% and 100%, respectively. Also, in the data set with Boophilus microplus [3], the mortality at 100 ppm amounted to 92.8%.
With `CCCCCCCCCCCCCCCCN=C=NC(C)(C)c1ccccc1` [Compound 14, N-n-cetyl-N'-(2-phenyl-2-propyl)carbodiimide], the pest or weed control at 110 µg/g in data set [4] is 96.6%. In addition, in data set [1], the mortality at 100 ppm was 80.3%.
With `CCCCCCCCCCCCCCCCCCN=C=NC(C)(C)c1ccccc1` [Compound 15, N-n-stearyl-N'-(2-phenyl-2-propyl)carbodiimide], the pest or weed control at 110 µg/g in data set [4] came out at 98%.
For `CC(C)(N=C=NC1CCCCC1)c1ccccc1` [Compound 16, N-cyclohexyl-N'-(2-phenyl-2-propyl)carbodiimide], the pest or weed control at 110 µg/g in the data set on Boophilus microplus [2] worked out at 100%. Also, the median lethal dose (LD50) at 168 h in data set [5] was 6000 mg/kg. Further, the mortality at 100 ppm in the data set on Boophilus microplus [3] was determined as 100%.
`CC1CC(N=C=NC(C)(C)c2ccccc2)CC(C)(C)C1` (stereo not drawn) [Compound 17, N-(3,3,5-trimethylcyclohexyl)-N'-(2-phenyl-2-propyl)carbodiimide]: the pest or weed control at 110 µg/g (in the data set with Boophilus microplus [2]; in data set [4]) was 100% in each case. For the same molecule, the LD50 at 168 h in data set [5] turned out to be 11000 mg/kg. Also, the mortality at 100 ppm (with Boophilus microplus [3]; in data set [1]) was 100% in each case.
Turning to `CC(C)(N=C=Nc1ccccc1)c1ccccc1` [Compound 18, N-phenyl-N'-(2-phenyl-2-propyl)carbodiimide], the mortality at 100 ppm (in the data set with Boophilus microplus [3]; in data set [1]) was 100% throughout.
On to `Cc1ccc(N=C=NC(C)(C)c2ccccc2)cc1` [Compound 19, N-p-tolyl-N'-(2-phenyl-2-propyl)carbodiimide], for which the mortality at 100 ppm was found to be 81.8% in the data set with Boophilus microplus [3] and 86.6% in data set [1].
For `COc1ccc(N=C=NC(C)(C)c2ccccc2)cc1` [Compound 20, N-p-methoxyphenyl-N-'-(2-phenyl-2-propyl)carbodiimide], the mortality at 100 ppm in data set [1] stood at 96.4%.
`COc1ccc(N=C=NC(C)(C)c2ccccc2)c(C)c1` [Compound 21, N-p-methoxy-o-tolyl-N'-(2-phenyl-2-propyl)carbodiimide]: in data set [1], the mortality at 100 ppm is 100%.
Consider `CC(C)(N=C=Nc1ccc(Cl)c(Cl)c1)c1ccccc1` [Compound 22, N-3,4-dichlorophenyl-N'-(2-phenyl-2-propyl)carbodiimide], for which the mortality at 100 ppm in data set [1] was 82.5%.
With `CC(C)(N=C=NCc1ccccc1)c1ccccc1` [Compound 23, N-benzyl-N'-(2-phenyl-2-propyl)carbodiimide], the pest or weed control at 110 µg/g with Boophilus microplus [2] amounted to 81.9%. Further, the mortality at 100 ppm is 100% in the data set with Boophilus microplus [3] and 99.1% in data set [1].
Take `CC(N=C=NC(C)(C)c1ccccc1)c1ccccc1` (stereo not drawn) [Compound 24, N-α-phenylethyl-N'-(2-phenyl-2-propyl)carbodiimide]: the pest or weed control at 110 µg/g in data set [4] came to 100%. The mortality at 100 ppm is 99.5% in the data set with Boophilus microplus [3] and 99.1% in data set [1].
As for `CC(C)(N=C=NCCc1ccccc1)c1ccccc1` [Compound 25, N-β-phenylethyl-N'-(2-phenyl-2-propyl)carbodiimide], the pest or weed control at 110 µg/g (in the data set on Boophilus microplus [2]; in data set [4]) was 100% throughout. For the same molecule, the mortality at 100 ppm is 91.2% with Boophilus microplus [3] and 100% in data set [1].
Turning to `CC(C)(N=C=NCc1ccc(Cl)cc1)c1ccccc1` [Compound 26, N-p-chlorobenzyl-N'-(2-phenyl-2-propyl)carbodiimide], the mortality at 100 ppm with Boophilus microplus [3] came out at 81.9%; in data set [1], 86.4%.
The like results for `CC(C)(N=C=NCc1ccco1)c1ccccc1` [Compound 27, N-furfuryl-N'-(2-phenyl-2-propyl)carbodiimide] were, in that order, 77.8% and 91.1%.
Regarding `Cc1cc(Cl)ccc1N=CN(C)C` [Control Chemical I, reference compound], the pest or weed control at 110 µg/g in the data set with Boophilus microplus [2] worked out at 78.2%. This molecule registered an LD50 at 168 h in data set [5] of 160 mg/kg.
In the case of `CNC(=O)Oc1cccc2ccccc12` [Control Chemical II, reference compound], the pest or weed control at 110 µg/g with Boophilus microplus [2] stood at 27%.
